From patent US5674979A, “Agent for inhibiting symmetrical proteins, in particular enzymes” (priority 1989, dated 1997)
Where two headings read alike, the source gives them in different places.

Tests used:
HIV-1 [1] = details: H9 cells
Procedure: Compounds (a), (b), (c), (d) were tested in the molarity range from 0.1 μM to 1000 μM. Infectivity tests were carried out as follows: an HIV-1 suspension containing 10^2 infectious units was absorbed on to 5×10^6 H9 cells in a volume of 1 ml for 2 hours at 4° C. After this time, 9 ml of tissue culture medium with the required inhibitor concentration was added. The medium was exchanged with fresh medium plus inhibitor daily. Two control cultures were also prepared, one without inhibitor to determine the normal virus replication rate, the other containing inhibitor but no virus, to determine whether the substances were cytotoxic for H9 cells. […] The amount of virus antigen produced by the infected cells was measured daily using Elisa for eight days, indicating the amount of HIV-1 antigen in the tissue culture medium. After this, the cells were pelleted, washed in medium without inhibitor, and further incubated in inhibitor-less medium. The antigen production was measured on days 9 and 12 (ie 1 and […] after removal of the inhibitor). Virus production was also measured on days 7, 8, 9, and 12 by determining the amount of reverse transcriptase in the supernatant of the cell medium.

HIV-1 [2] = tested on: HIV-1
Procedure: Infectivity tests were carried out as follows: an HIV-1 suspension containing 10^2 infectious units was absorbed on to 5×10^6 H9 cells in a volume of 1 ml for 2 hours at 4° C. After this time, 9 ml of tissue culture medium with the required inhibitor concentration was added. The medium was exchanged with fresh medium plus inhibitor daily. Two control cultures were also prepared, one without inhibitor to determine the normal virus replication rate, the other containing inhibitor but no virus, to determine whether the substances were cytotoxic for H9 cells. […] The amount of virus antigen produced by the infected cells was measured daily using Elisa for eight days, indicating the amount of HIV-1 antigen in the tissue culture medium. After this, the cells were pelleted, washed in medium without inhibitor, and further incubated in inhibitor-less medium. The antigen production was measured on days 9 and 12 (ie 1 and 3 days after removal of the inhibitor). Virus production was also measured on days 7, 8, 9, and 12 by determining the amount of reverse transcriptase in the supernatant of the cell medium.

[3] = 0,1 μM, day 9 post infection, no inhibitor (after removal)
[4] = 0,1 μM, day 12 post infection, no inhibitor (after removal)
[5] = 1 μM, day 9 post infection, no inhibitor (after removal)
[6] = 1 μM, day 12 post infection, no inhibitor (after removal)
[7] = 10 μM, day 9 post infection, no inhibitor (after removal)
[8] = 10 μM, day 12 post infection, no inhibitor (after removal)
[9] = 100 μM, day 9 post infection, no inhibitor (after removal)
[10] = 100 μM, day 12 post infection, no inhibitor (after removal)
[11] = 1000 μM, day 9 post infection, no inhibitor (after removal)
[12] = 1000 μM, day 12 post infection, no inhibitor (after removal)

SMILES: CC(C)C[C@H](NC(=O)OC(C)(C)C)C(=O)NCC(O)CC(=O)O (stereo partly drawn) [B, t-BOC-L-Leu-NH--CH2 --CHOH--CH2 --COOH]
- HIV-1 antigen production as measured in antigen capture ELISA (HIV-1 [1]; 0,1 μM, day 1 post infection): 0,061 o. D.
- HIV-1 antigen production as measured in antigen capture ELISA (HIV-1 [1]; 0,1 μM, day 2 post infection): 0,063 o. D.
- HIV-1 antigen production as measured in antigen capture ELISA (HIV-1 [1]; 0,1 μM, day 3 post infection): 0,039 o. D.
- HIV-1 antigen production as measured in antigen capture ELISA (HIV-1 [1]; 0,1 μM, day 4 post infection): 0,063 o. D.
- HIV-1 antigen production as measured in antigen capture ELISA (HIV-1 [1]; 0,1 μM, day 5 post infection): 0,055 o. D.
- HIV-1 antigen production as measured in antigen capture ELISA (HIV-1 [1]; 0,1 μM, day 6 post infection): 0,149 o. D.
- HIV-1 antigen production as measured in antigen capture ELISA (HIV-1 [1]; 0,1 μM, day 7 post infection): 0,389 o. D.
- HIV-1 antigen production as measured in antigen capture ELISA (HIV-1 [1]; 0,1 μM, day 8 post infection): 0,232 o. D.
- HIV-1 antigen production as measured in antigen capture ELISA (HIV-1 [1]; [3]): 0,700 o. D.
- HIV-1 antigen production as measured in antigen capture ELISA (HIV-1 [1]; [4]): 1,047 o. D.
- HIV-1 antigen production as measured in antigen capture ELISA (HIV-1 [1]; 1 μM, day 1 post infection): 0,063 o. D.
- HIV-1 antigen production as measured in antigen capture ELISA (HIV-1 [1]; 1 μM, day 2 post infection): 0,060 o. D.
- HIV-1 antigen production as measured in antigen capture ELISA (HIV-1 [1]; 1 μM, day 3 post infection): 0,061 o. D.
- HIV-1 antigen production as measured in antigen capture ELISA (HIV-1 [1]; 1 μM, day 4 post infection): 0,050 o. D.
- HIV-1 antigen production as measured in antigen capture ELISA (HIV-1 [1]; 1 μM, day 5 post infection): 0,052 o. D.
- HIV-1 antigen production as measured in antigen capture ELISA (HIV-1 [1]; 1 μM, day 6 post infection): 0,105 o. D.
- HIV-1 antigen production as measured in antigen capture ELISA (HIV-1 [1]; 1 μM, day 7 post infection): 0,186 o. D.
- HIV-1 antigen production as measured in antigen capture ELISA (HIV-1 [1]; 1 μM, day 8 post infection): 0,237 o. D.
- HIV-1 antigen production as measured in antigen capture ELISA (HIV-1 [1]; [5]): 0,745 o. D.
- HIV-1 antigen production as measured in antigen capture ELISA (HIV-1 [1]; [6]): 0,970 o. D.
- HIV-1 antigen production as measured in antigen capture ELISA (HIV-1 [1]; 10 μM, day 1 post infection): 0,063 o. D.
- HIV-1 antigen production as measured in antigen capture ELISA (HIV-1 [1]; 10 μM, day 2 post infection): 0,060 o. D.
- HIV-1 antigen production as measured in antigen capture ELISA (HIV-1 [1]; 10 μM, day 3 post infection): 0,059 o. D.
- HIV-1 antigen production as measured in antigen capture ELISA (HIV-1 [1]; 10 μM, day 4 post infection): 0,047 o. D.
- HIV-1 antigen production as measured in antigen capture ELISA (HIV-1 [1]; 10 μM, day 5 post infection): 0,055 o. D.
- HIV-1 antigen production as measured in antigen capture ELISA (HIV-1 [1]; 10 μM, day 6 post infection): 0,087 o. D.
- HIV-1 antigen production as measured in antigen capture ELISA (HIV-1 [1]; 10 μM, day 7 post infection): 0,303 o. D.
- HIV-1 antigen production as measured in antigen capture ELISA (HIV-1 [1]; 10 μM, day 8 post infection): 0,342 o. D.
- HIV-1 antigen production as measured in antigen capture ELISA (HIV-1 [1]; [7]): 0,645 o. D.
- HIV-1 antigen production as measured in antigen capture ELISA (HIV-1 [1]; [8]): 1,038 o. D.
- HIV-1 antigen production as measured in antigen capture ELISA (HIV-1 [1]; 100 μM, day 1 post infection): 0,068 o. D.
- HIV-1 antigen production as measured in antigen capture ELISA (HIV-1 [1]; 100 μM, day 2 post infection): 0,070 o. D.
- HIV-1 antigen production as measured in antigen capture ELISA (HIV-1 [1]; 100 μM, day 3 post infection): 0,063 o. D.
- HIV-1 antigen production as measured in antigen capture ELISA (HIV-1 [1]; 100 μM, day 4 post infection): 0,052 o. D.
- HIV-1 antigen production as measured in antigen capture ELISA (HIV-1 [1]; 100 μM, day 5 post infection): 0,052 o. D.
- HIV-1 antigen production as measured in antigen capture ELISA (HIV-1 [1]; 100 μM, day 6 post infection): 0,099 o. D.
- HIV-1 antigen production as measured in antigen capture ELISA (HIV-1 [1]; 100 μM, day 7 post infection): 0,359 o. D.
- HIV-1 antigen production as measured in antigen capture ELISA (HIV-1 [1]; 100 μM, day 8 post infection): 0,260 o. D.
- HIV-1 antigen production as measured in antigen capture ELISA (HIV-1 [1]; [9]): 0,890 o. D.
- HIV-1 antigen production as measured in antigen capture ELISA (HIV-1 [1]; [10]): 0,960 o. D.
- HIV-1 antigen production as measured in antigen capture ELISA (HIV-1 [1]; 1000 μM, day 1 post infection): 0,076 o. D.
- HIV-1 antigen production as measured in antigen capture ELISA (HIV-1 [1]; 1000 μM, day 2 post infection): 0,068 o. D.
- HIV-1 antigen production as measured in antigen capture ELISA (HIV-1 [1]; 1000 μM, day 3 post infection): 0,050 o. D.
- HIV-1 antigen production as measured in antigen capture ELISA (HIV-1 [1]; 1000 μM, day 4 post infection): 0,050 o. D.
- HIV-1 antigen production as measured in antigen capture ELISA (HIV-1 [1]; 1000 μM, day 5 post infection): 0,063 o. D.
- HIV-1 antigen production as measured in antigen capture ELISA (HIV-1 [1]; 1000 μM, day 6 post infection): 0,075 o. D.
- HIV-1 antigen production as measured in antigen capture ELISA (HIV-1 [1]; 1000 μM, day 7 post infection): 0,279 o. D.
- HIV-1 antigen production as measured in antigen capture ELISA (HIV-1 [1]; 1000 μM, day 8 post infection): 0,577 o. D.
- HIV-1 antigen production as measured in antigen capture ELISA (HIV-1 [1]; [11]): 0,811 o. D.
- HIV-1 antigen production as measured in antigen capture ELISA (HIV-1 [1]; [12]): 1,050 o. D.
- Reverse Transkriptase Determination (HIV-1 [2]; 0,1 μM, day 7 post infection): 2099 epm/ml
- Reverse Transkriptase Determination (HIV-1 [2]; 0,1 μM, day 8 post infection): 3091 epm/ml
- Reverse Transkriptase Determination (HIV-1 [2]; [3]): 6180 epm/ml
- Reverse Transkriptase Determination (HIV-1 [2]; [4]): 106830 epm/ml
- Reverse Transkriptase Determination (HIV-1 [2]; 1 μM, day 7 post infection): 6105 epm/ml
- Reverse Transkriptase Determination (HIV-1 [2]; 1 μM, day 8 post infection): 3006 epm/ml
- Reverse Transkriptase Determination (HIV-1 [2]; [5]): 8474 epm/ml
- Reverse Transkriptase Determination (HIV-1 [2]; [6]): 92020 epm/ml
- Reverse Transkriptase Determination (HIV-1 [2]; 10 μM, day 7 post infection): 4614 epm/ml
- Reverse Transkriptase Determination (HIV-1 [2]; 10 μM, day 8 post infection): 4188 epm/ml
- Reverse Transkriptase Determination (HIV-1 [2]; [7]): 7187 epm/ml
- Reverse Transkriptase Determination (HIV-1 [2]; [8]): 164920 epm/ml
- Reverse Transkriptase Determination (HIV-1 [2]; 100 μM, day 7 post infection): 4033 epm/ml
- Reverse Transkriptase Determination (HIV-1 [2]; 100 μM, day 8 post infection): 4418 epm/ml
- Reverse Transkriptase Determination (HIV-1 [2]; [9]): 6575 epm/ml
- Reverse Transkriptase Determination (HIV-1 [2]; [10]): 125290 epm/ml
- Reverse Transkriptase Determination (HIV-1 [2]; 1000 μM, day 7 post infection): 3441 epm/ml
- Reverse Transkriptase Determination (HIV-1 [2]; 1000 μM, day 8 post infection): 3159 epm/ml
- Reverse Transkriptase Determination (HIV-1 [2]; [11]): 5503 epm/ml
- Reverse Transkriptase Determination (HIV-1 [2]; [12]): 149020 epm/ml
